A short description of data set [1]: Pharmacokinetic testing in SD (IGS) rats, oral administration, CNDAC serum concentration. In kind it is in vivo. The settings on record: 10 mg/kg of body weight, rat, dose equivalent to 10 mg of CNDAC/kg of body weight, 0 to 8 hours after administration. The procedure:
Pharmacokinetic Testing in SD (IGS) Rats
Test compounds were orally administered to SD (IGS) rats (product of Charles River Laboratories Japan, Inc.; 8 weeks old), and, based on the CNDAC serum concentration in the rats, orally administered absorbability and in vivo activation into CNDAC were evaluated.
In the morning of the test day, predetermined amounts of test compounds were each dissolved or suspended in a 0.5% hydroxypropylmethylcellulose solution prepared with 100 mM citrate buffer (pH 4.5), and orally administered. CNDAC was administered at a dose of 10 mg/kg of body weight, and other test compounds were administered at a dose equivalent to 10 mg of CNDAC/kg of body weight. Blood was collected from the jugular vein 0.5, 1, 2, 4, 6, and 8 hours after administration of the test compounds (two or three rats per point) to obtain serum. The serum concentrations of the compounds and CNDAC were measured using LC/MS, and the area under the curve (AUC) of the CNDAC serum concentration from 0 to 8 hours after administration were calculated.

Data set [2] has as its system Human colon cancer strain KM20C. Description: Antitumor test using tumor-subcutaneously-implanted nude mouse system upon oral administration (equimolar dose). The data set is classed as in vivo, BALB/cA Jcl-nu mouse. Conditions: once per day for 14 days, dose equimolar to 18 mg of CNDAC/kg of body weight per day, evaluated on the 29th day after grouping, vs untreated group. The procedure: Antitumor Test using Tumor-Subcutaneously-Implanted Nude Mouse System Upon Oral Administration
(§1) Human colon cancer strain KM20C subcutaneously subcultured in a BALB/cA Jcl-nu mouse (product of Clea Japan Inc.) was prepared into fragments of 2 mm×2 mm, and subcutaneously implanted into the backs of 6-week-old BALB/cA Jcl-nu mice. When the average tumor volume exceeded 100 mm^3, the length of each tumor was measured along the major axis and minor axis, and the tumor volume was calculated using the following equation. The mice were then divided into several groups to reduce variations in tumor volume among the groups (5 or 6 mice per group). Vt=½(Vl)×(Vs)^2, (Equation 1)
wherein Vt represents a tumor volume, Vl represents the length along the tumor major axis, and Vs represents the length along the tumor minor axis.
Test compounds were each dissolved or suspended in a 0.5% hydroxypropylmethylcellulose solution prepared with 100 mM citrate buffer (pH 5.0), and, from the day after the day of grouping, orally administered to the mice once per day for 14 days. The dose was set to be equimolar to 18 mg of CNDAC/kg of body weight per day.
On the 29th day after the day of grouping, with respect to the mice in each group, the longest diameter and shortest diameter of each of the subcutaneously implanted tumors were measured. The relative tumor volume (RTV) and the tumor growth inhibition rate (1R) were calculated using the following equation to evaluate antitumor effects. RTV=Vt1/Vt2, (Equation 2)
wherein RTV represents a relative tumor volume, Vt1 represents the tumor volume on the day of evaluation, and Vt2 represents the tumor volume on the day of grouping. IR(%)=[1−(RTVtest)/(RTVcont)]×100, (Equation 3)
wherein IR represents a tumor growth inhibition rate, RTVtest represents the average RTV value in a drug administration group, and RTVcont represents the average RTV value in an untreated group.

For data set [3] the test system is unchanged. The experiment in a line: Antitumor test using tumor-subcutaneously-implanted nude mouse system upon oral administration at an equitoxic dose. The settings on record: once per day for 14 days; for tumor course after completion of administration (regrowth): 20th to 25th day after grouping (about 1 week after completion of administration). In kind it is in vivo, BALB/cA Jcl-nu mouse. The procedure: Antitumor Test of CNDAC, P-CNDAC, and Compounds 1 and 11 of the Present Invention using Tumor-Subcutaneously-Implanted Nude Mouse System Upon Oral Administration at an Equitoxic Dose.
as §1, with “On” for “When”, “15th day after the day of implantation,” for “average tumor volume exceeded 100 mm^3,”, “Vt=1/2(Vl)×(Vs)2” for “Vt=½(Vl)×(Vs)^2,”, “5) wherein Vt represents a tumor volume, Vl represents the length along the tumor major axis, and Vs represents the length along the tumor minor axis.” for “1)”
CNDAC, P-CNDAC, and Compounds 1 and 11 were each dissolved or suspended in a 0.5% hydroxypropylmethylcellulose solution prepared with 100 mM citrate buffer (pH 5.0), and, from the day after the day of grouping, orally administered at an equitoxic dose once per day for 14 days.
With respect to the mice in each group, the length of each of the subcutaneously implanted tumors was measured along the major axis and minor axis twice a week. RTV was calculated as a reference of tumor growth using the following equation to evaluate antitumor effects. RTV=Vt1/Vt2, (Equation 6)
wherein RTV represents a relative tumor volume, Vt1 represents the tumor volume on the day of evaluation, and Vt2 represents the tumor volume on the day of grouping.

Data set [4] can be described thus: Measurement of water solubility. The settings on record: for solubility at 75 min: water, 37 °C, thermodynamic from solid.
Experimental: Measurement of Water Solubility
Test compounds (2 mg or more) were each suspended in water (1 ml), then sonicated for 10 seconds, and incubated at 37° C. for 75 minutes. After filtration through a membrane filter (Millex-LG, 0.2 μm, product of Millipore Corporation), 100 μl of the obtained filtrate was diluted with acetonitrile (100 μl), and analyzed using a high performance liquid chromatograph apparatus.
The solubility of each test compound in water was calculated from the calibration curve.

Results on 17 molecules are retold here after patent publication US20100216736A2, “2'-CYANOPYRIMIDINE NUCLEOSIDE COMPOUND” (Taiho Pharmaceutical Co., Ltd., priority 2006, published 2010).

In general, AUC(0-t) refers to exposure summed from dosing to a finite time, without extrapolation to infinity. A word on the solubility: it is how much of the substance goes into solution per volume. Read a low solubility as little dissolved substance. As a reminder, the melting point is the temperature of the solid-liquid transition.

Values after ≈ are worked out from the molar mass of the structure shown.

As for `N#C[C@H]1[C@H](O)[C@@H](CO)O[C@H]1n1ccc(N)nc1=O` [CNDAC, 2′-cyano-2′-deoxy-1-β-D-arabinofuranosylcytosine, reference compound], in data set [1], the AUC(0-t) came to 493 ng·h/mL. The “IR (%) tumor growth inhibition rate” value in data set [2] turned out to be 54%. Moreover, in data set [3], the tumor disappearance result is “tumors did not disappear” and the “tumor course after completion of administration (regrowth)” value (“tumor course after completion” for short) was “tumor regrowth was observed”. Also, in data set [4] (in water, 37° C.), the “water solubility, in words” value was “extremely high water solubility”. Moreover, the solubility at 75 min in data set [4] was over 1000 µg/mL.
In turn, `CCCCCCCCCOC(=O)Nc1ccn([C@@H]2O[C@H](CO)[C@@H](O)[C@@H]2C#N)c(=O)n1` [Compound 1, 4-N-(n-Nonyloxycarbonyl)-2′-cyano-2′-deoxy-1-β-D-arabinofuranosylcytosine] registered a melting point of 66 °C. The “IR (%) tumor growth inhibition rate” value in data set [2] worked out at 96%. For the same molecule, in data set [3], the “reduction of tumor volume (RTV), FIG. 1” value is “greater reduction of tumor volume than CNDAC and P-CNDAC”; the tumor disappearance entry was “tumor disappearance was achieved in one of the five cases”; the “tumor course after completion” value is reported as “the tumor size continued to reduce even after completion of administration”. In data set [4], this molecule gave a solubility at 75 min of 21.1 µg/mL (≈ 49.9 µM).
For `CCCCC(CCCC)OC(=O)Nc1ccn([C@@H]2O[C@H](CO)[C@@H](O)[C@@H]2C#N)c(=O)n1` [Compound 2, 4-N-(Nonan-5-yloxycarbonyl)-2′-cyano-2′-deoxy-1-β-D-arabinofuranosylcytosine], the melting point worked out at 83.6 °C.
Molecule `CC/C=C\CCCCCOC(=O)Nc1ccn([C@@H]2O[C@H](CO)[C@@H](O)[C@@H]2C#N)c(=O)n1` [Compound 3, 4-N—[(Z)-6-Nonen-1-yloxycarbonyl]-2′-cyano-2′-deoxy-1-β-D-arabinofuranosylcytosine] registered a melting point of 72.4 °C.
Take `CCCCC/C=C\CCOC(=O)Nc1ccn([C@@H]2O[C@H](CO)[C@H](O)[C@@H]2C#N)c(=O)n1` [Compound 4, 4-N—[(Z)-3-Nonen-1-yloxycarbonyl]-2′-cyano-2′-deoxy-1-β-D-arabinofuranosylcytosine]: in data set [2], the “IR (%) tumor growth inhibition rate” value is on record as 93%.
As for `CCCCCC/C=C/COC(=O)Nc1ccn([C@@H]2O[C@H](CO)[C@@H](O)[C@@H]2C#N)c(=O)n1` [Compound 5, 4-N—[(E)-2-Nonen-1-yloxycarbonyl]-2′-cyano-2′-deoxy-1-β-D-arabinofuranosylcytosine], the melting point is 71.1 °C.
Same read-out and setting: under `C=CCCCCCCCOC(=O)Nc1ccn([C@@H]2O[C@H](CO)[C@@H](O)[C@@H]2C#N)c(=O)n1` [Compound 6, 4-N-(8-Nonen-1-yloxycarbonyl)-2′-cyano-2′-deoxy-1-β-D-arabinofuranosylcytosine] stands 72.7 °C.
Consider `CCCCCC/C=C\COC(=O)Nc1ccn([C@@H]2O[C@H](CO)[C@@H](O)[C@@H]2C#N)c(=O)n1` [Compound 7, 4-N—[(Z)-2-Nonen-1-yloxycarbonyl]-2′-cyano-2′-deoxy-1-β-D-arabinofuranosylcytosine], for which, in data set [2], the “IR (%) tumor growth inhibition rate” value turned out to be 96%. Moreover, in data set [4], the solubility at 75 min was over 50 µg/mL.
In turn, `CCCCCCOC(=O)OC[C@H]1O[C@@H](n2ccc(N)nc2=O)[C@@H](C#N)[C@@H]1O` [Compound 8, 5′-O-(n-Hexyloxycarbonyl)-2′-cyano-2′-deoxy-1-β-D-arabinofuranosylcytosine] had a melting point of 154.1 °C. Also, the “IR (%) tumor growth inhibition rate” value in data set [2] turned out to be 76%. For the same molecule, in data set [4], the solubility at 75 min was over 50 µg/mL.
In the same order, the values of `CCCCCCCOC(=O)OC[C@H]1O[C@@H](n2ccc(N)nc2=O)[C@@H](C#N)[C@@H]1O` [Compound 9, 5′-O-(n-Heptyloxycarbonyl)-2′-cyano-2′-deoxy-1-β-D-arabinofuranosylcytosine] are 152.2 °C, 78% and over 50 µg/mL.
The like results for `CCCCCCCCOC(=O)OC[C@H]1O[C@@H](n2ccc(N)nc2=O)[C@@H](C#N)[C@@H]1O` [Compound 10, 5′-O-(n-Octyloxycarbonyl)-2′-cyano-2′-deoxy-1-β-D-arabinofuranosylcytosine] were, in that order, 143.1 °C, 89% and over 50 µg/mL.
`CCCCC(CCCC)OC(=O)OC[C@H]1O[C@@H](n2ccc(N)nc2=O)[C@@H](C#N)[C@@H]1O` [Compound 11, 5′-O-(Nonan-5-yloxycarbonyl)-2′-cyano-2′-deoxy-1-β-D-arabinofuranosylcytosine] returned a melting point of 167.2 °C. Also, the “IR (%) tumor growth inhibition rate” value in data set [2] was found to be 93%. Also, in data set [3], the “reduction of tumor volume (RTV), FIG. 1” value was “greater reduction of tumor volume than CNDAC and P-CNDAC”; the “tumor course after completion” value was “the tumor size continued to reduce even after completion of administration”. Also, the concentration in solution in data set [4] (solubility at 75 min) came to 49.5 µg/mL (≈ 117 µM).
With `CC(C)CC(CC(C)C)OC(=O)OC[C@H]1O[C@@H](n2ccc(N)nc2=O)[C@@H](C#N)[C@@H]1O` [Compound 14, 5′-O-(2,6-Dimethylheptan-4-yloxycarbonyl)-2′-cyano-2′-deoxy-1-β-D-arabinofuranosylcytosine], the melting point was 182.7 °C (dec.).
`CCCCCCCCCCOC(=O)Nc1ccn([C@@H]2O[C@H](CO)[C@@H](O)[C@@H]2C#N)c(=O)n1` [Compound 15, 4-N-(n-Decyloxycarbonyl)-2′-cyano-2′-deoxy-1-β-D-arabinofuranosylcytosine] yielded a melting point of 97 °C. The “IR (%) tumor growth inhibition rate” value in data set [2] was found to be 22%.
The like results for `CCCCCCCCOC(=O)Nc1ccn([C@@H]2O[C@H](CO)[C@@H](O)[C@@H]2C#N)c(=O)n1` [Compound 16, 4-N-(n-Octyloxycarbonyl)-2′-cyano-2′-deoxy-1-β-D-arabinofuranosylcytosine] were, in that order, 67.5 °C and 38%.
In the same order, the values of `N#C[C@H]1[C@H](O)[C@@H](COC(=O)Oc2ccc(Cl)cc2)O[C@H]1n1ccc(N)nc1=O` [Compound 17, 5′-O-(4-Chlorophenyloxycarbonyl)-2′-cyano-2′-deoxy-1-β-D-arabinofuranosylcytosine] are 113 °C and 58%.
Regarding `CCCCCCCCCCCCCCCC(=O)Nc1ccn([C@@H]2O[C@H](CO)[C@@H](O)[C@@H]2C#N)c(=O)n1` [P-CNDAC, 4-N-palmitoyl-2′-cyano-2′-deoxy-1-β-D-arabinofuranosylcytosine, reference compound], in data set [3], the tumor disappearance entry is “tumors did not disappear” and the “tumor course after completion” value is recorded as “tumor regrowth was observed”. Also, the “water solubility, in words” value in data set [4] (in water, 37° C.) is listed as “low water solubility”. In data set [4] (in water, 37° C., 75 minutes, filtrate analysed by HPLC), the “Water Solubility” value is under 0.5 µg/mL.
